Legend:
[1] = molecular target: T1, COX-2 (purified enzyme from ewe placenta) (Ovis aries, UniProt P79208); assay: Inhibition of COX-2 enzymatic activity (PGE2 determined by EIA); format: biochemical; settings: arachidonic acid 4 μM, mean ± standard deviation, 4 determinations; for inhibition at 10 µM: 10^-5 M
T1 construct: purified enzyme from ewe placenta; from tissue; host or cells: ewe placenta
T1 sequence (P79208 17-603): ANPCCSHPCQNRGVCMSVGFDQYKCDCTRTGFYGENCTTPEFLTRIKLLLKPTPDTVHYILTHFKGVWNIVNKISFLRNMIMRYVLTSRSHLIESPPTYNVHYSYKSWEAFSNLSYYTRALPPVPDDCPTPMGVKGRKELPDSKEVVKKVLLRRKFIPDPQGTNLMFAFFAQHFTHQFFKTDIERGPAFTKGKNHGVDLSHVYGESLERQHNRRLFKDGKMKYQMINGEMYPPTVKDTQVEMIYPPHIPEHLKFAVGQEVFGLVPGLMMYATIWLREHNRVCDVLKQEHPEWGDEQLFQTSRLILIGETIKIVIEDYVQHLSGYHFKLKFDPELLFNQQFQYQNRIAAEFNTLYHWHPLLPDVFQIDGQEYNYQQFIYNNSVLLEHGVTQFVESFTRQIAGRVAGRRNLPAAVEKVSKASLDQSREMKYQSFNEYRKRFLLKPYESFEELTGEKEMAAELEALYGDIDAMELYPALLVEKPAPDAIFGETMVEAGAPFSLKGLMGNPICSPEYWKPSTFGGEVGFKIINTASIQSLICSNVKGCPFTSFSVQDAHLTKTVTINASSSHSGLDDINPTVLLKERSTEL
Description: (§1) The molecule studied is preincubated for 10 minutes at 25° C. with 2 U of COX-1 (purified enzyme from ram seminal vesicles) or 1 U of COX-2 (purified enzyme from ewe placenta). Arachidonic acid (6 μM for COX-1, 4 μM for COX-2) is added to the reaction medium and incubation is carried out for 5 minutes at 25° C. When incubation has ended, the enzymatic reaction is stopped by the addition of 1N HCl and the PGE2 produced is determined by EIA. The results are expressed as the percentage inhibition of the COX-1 and COX-2 enzymatic activities and correspond to mean (±) standard deviations from the average of 4 determinations.

[2] = molecular target: T2, COX-1 (purified enzyme from ram seminal vesicles) (Ovis aries, UniProt P05979); assay: Inhibition of COX-1 enzymatic activity (PGE2 determined by EIA); format: biochemical; settings: arachidonic acid 6 μM, mean ± standard deviation, 4 determinations; for inhibition at 10 µM: 10^-5 M; for inhibition at 0.1 µM: 10^-7 M
T2 construct: purified enzyme from ram seminal vesicles; from tissue; host or cells: ram seminal vesicles
T2 sequence (P05979 25-600): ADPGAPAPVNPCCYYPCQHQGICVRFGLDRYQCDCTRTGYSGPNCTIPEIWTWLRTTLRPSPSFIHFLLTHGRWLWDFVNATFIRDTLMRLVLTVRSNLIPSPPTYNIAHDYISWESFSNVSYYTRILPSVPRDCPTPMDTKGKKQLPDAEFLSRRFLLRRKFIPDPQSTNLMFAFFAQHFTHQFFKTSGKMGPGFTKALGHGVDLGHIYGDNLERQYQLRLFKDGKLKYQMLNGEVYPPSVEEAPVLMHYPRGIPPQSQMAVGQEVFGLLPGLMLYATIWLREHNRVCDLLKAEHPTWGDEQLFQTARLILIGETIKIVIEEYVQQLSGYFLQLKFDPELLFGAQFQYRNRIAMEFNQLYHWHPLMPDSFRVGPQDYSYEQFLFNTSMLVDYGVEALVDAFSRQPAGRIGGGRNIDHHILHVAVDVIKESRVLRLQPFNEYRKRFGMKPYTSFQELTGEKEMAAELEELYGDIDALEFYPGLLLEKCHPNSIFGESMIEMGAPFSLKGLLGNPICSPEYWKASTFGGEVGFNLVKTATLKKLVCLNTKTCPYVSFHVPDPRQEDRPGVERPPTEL
Description: as §1

| inhibition at 10 µM [1] [%] | inhibition at 0.1 µM ([1]; 10^-7 M) [%] | inhibition at 10 µM [2] [%] | inhibition at 0.1 µM [2] [%] | SMILES |
| --- | --- | --- | --- | --- |
| 83 ± 2 | 29 ± 2 | 36 ± 14 | 4 ± 4 | CS(=O)(=O)c1ccc(-c2cc3ccccc3n2-c2ccc(F)cc2)cc1 [Example 16, 1-(4-Fluorophenyl)-2-[4-(methylsulfonyl)phenyl]indole] |
| 89 ± 2 |  | 29 ± 5 | 2 ± 2 | Cc1ccc(-n2c(-c3ccc(S(C)(=O)=O)cc3)cc3ccccc32)cc1 [Example 17, 1-(4-Methylphenyl)-2-[4-(methylsulfonyl)phenyl]indole] |
| 88 ± 2 |  | 23 ± 6 | 2 ± 2 | CS(=O)(=O)c1ccc(-c2cc3ccccc3n2-c2ccccc2)cc1 [Example 18, 1-Phenyl-2-[4-(methylsulfonyl)phenyl]indole] |
| 95 |  |  |  | CS(=O)(=O)c1ccc(-c2cc3ccccc3n2-c2ccc(Cl)cc2)cc1 [Example 19, 1-(4-Chlorophenyl)-2-[4-(methylsulfonyl)phenyl]indole] |
